Measurements from the kinase profiling compilation of Christmann-Franck et al. (2016).
One block for each compound: values may come before it.

How the values were obtained:
Assay in all cases: KINOMEscan competition binding
Settings in all cases: compound 10.0 µM
NEK6 (human) = NEK6 (human) (UniProt Q9HC98)
CSK (human) = CSK (human) (UniProt P41240)
[1] = system: EGFR (human), P00533 [G719S]
[2] = target: JAK1 JH1 catalytic (human) (UniProt P23458)
[3] = system: RET (human), P07949 [V804L]
NTRK3 (human) = NTRK3 (human) (UniProt Q16288)
CAMKK2 (human) = CAMKK2 (human) (UniProt Q96RR4)
RPS6KA1 KD2 (human) = RPS6KA1 KD2 (human) (UniProt Q15418)
RIOK3 (human) = RIOK3 (human) (UniProt O14730)
CDK7 (human) = CDK7 (human) (UniProt P50613)
MKNK1 (human) = MKNK1 (human) (UniProt Q9BUB5)
MYLK4 (human) = MYLK4 (human) (UniProt Q86YV6)
CSNK2A1 (human) = CSNK2A1 (human) (UniProt P68400)
CSNK1D (human) = CSNK1D (human) (UniProt P48730)
MYLK (human) = MYLK (human) (UniProt Q15746)
PIM1 (human) = PIM1 (human) (UniProt P11309)
Sequence of PIM1 (human) (P11309 whole entry, looked up): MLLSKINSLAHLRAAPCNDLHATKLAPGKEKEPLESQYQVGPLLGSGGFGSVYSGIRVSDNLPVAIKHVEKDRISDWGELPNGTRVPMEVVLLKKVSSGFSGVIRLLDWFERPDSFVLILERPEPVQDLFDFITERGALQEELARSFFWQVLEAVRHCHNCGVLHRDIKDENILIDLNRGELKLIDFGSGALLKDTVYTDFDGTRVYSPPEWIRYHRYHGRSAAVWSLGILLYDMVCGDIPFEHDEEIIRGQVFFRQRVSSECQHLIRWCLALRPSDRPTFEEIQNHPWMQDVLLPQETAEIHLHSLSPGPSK

ITK (human) = ITK (human) (UniProt Q08881)
AAK1 (human) = AAK1 (human) (UniProt Q2M2I8)
DDR1 (human) = DDR1 (human) (UniProt Q08345)
SLK (human) = SLK (human) (UniProt Q9H2G2)
Sequence of SLK (human) (Q9H2G2 whole entry, looked up): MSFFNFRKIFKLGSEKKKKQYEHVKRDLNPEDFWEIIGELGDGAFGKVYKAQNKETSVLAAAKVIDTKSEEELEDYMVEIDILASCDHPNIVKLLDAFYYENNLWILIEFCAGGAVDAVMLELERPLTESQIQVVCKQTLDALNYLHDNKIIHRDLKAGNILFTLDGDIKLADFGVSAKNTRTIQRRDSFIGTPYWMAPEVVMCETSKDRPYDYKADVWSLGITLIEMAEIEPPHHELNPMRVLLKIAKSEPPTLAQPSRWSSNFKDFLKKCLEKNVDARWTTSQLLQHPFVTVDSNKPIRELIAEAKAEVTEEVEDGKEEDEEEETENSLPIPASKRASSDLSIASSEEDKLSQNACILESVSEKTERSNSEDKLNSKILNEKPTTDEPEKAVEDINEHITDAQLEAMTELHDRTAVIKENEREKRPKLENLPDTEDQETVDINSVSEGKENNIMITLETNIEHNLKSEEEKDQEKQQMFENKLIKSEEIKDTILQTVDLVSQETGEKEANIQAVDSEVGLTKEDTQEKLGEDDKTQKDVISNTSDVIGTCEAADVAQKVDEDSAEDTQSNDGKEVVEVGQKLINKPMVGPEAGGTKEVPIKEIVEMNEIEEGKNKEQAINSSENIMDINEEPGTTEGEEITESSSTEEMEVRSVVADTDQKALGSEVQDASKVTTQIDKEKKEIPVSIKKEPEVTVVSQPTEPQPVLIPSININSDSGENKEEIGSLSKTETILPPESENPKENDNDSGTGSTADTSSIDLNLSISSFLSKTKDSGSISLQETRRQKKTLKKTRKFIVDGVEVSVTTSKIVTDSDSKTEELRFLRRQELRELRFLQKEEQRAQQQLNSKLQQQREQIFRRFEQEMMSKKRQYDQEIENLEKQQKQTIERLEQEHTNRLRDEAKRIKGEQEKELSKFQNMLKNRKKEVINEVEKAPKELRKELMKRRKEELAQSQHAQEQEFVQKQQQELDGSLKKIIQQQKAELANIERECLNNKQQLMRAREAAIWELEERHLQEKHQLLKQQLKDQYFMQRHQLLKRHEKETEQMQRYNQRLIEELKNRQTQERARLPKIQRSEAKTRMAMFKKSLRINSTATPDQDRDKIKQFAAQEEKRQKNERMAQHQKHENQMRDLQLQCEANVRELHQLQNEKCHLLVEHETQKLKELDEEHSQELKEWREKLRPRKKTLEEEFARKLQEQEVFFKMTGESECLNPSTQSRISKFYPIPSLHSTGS

FER (human) = FER (human) (UniProt P16591)
Sequence of FER (human) (P16591 whole entry, looked up): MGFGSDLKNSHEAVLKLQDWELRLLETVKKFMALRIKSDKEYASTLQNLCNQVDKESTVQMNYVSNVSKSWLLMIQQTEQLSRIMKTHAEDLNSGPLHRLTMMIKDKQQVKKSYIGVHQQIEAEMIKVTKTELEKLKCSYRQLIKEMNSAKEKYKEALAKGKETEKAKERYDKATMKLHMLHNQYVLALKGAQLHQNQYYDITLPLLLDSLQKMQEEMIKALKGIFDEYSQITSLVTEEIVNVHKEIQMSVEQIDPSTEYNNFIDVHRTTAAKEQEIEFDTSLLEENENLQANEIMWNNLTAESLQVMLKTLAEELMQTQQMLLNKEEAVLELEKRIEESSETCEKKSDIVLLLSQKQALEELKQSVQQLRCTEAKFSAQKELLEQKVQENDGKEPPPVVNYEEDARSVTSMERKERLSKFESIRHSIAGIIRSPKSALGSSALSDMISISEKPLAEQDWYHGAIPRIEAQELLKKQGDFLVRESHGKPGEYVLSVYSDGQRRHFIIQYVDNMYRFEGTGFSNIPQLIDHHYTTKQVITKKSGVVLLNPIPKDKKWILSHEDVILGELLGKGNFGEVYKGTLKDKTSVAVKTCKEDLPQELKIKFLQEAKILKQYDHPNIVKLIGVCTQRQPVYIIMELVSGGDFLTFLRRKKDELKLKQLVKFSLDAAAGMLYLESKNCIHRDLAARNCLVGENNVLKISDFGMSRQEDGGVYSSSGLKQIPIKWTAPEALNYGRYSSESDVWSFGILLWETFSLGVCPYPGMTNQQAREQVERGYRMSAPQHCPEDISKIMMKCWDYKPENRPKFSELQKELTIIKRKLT

DMPK (human) = DMPK (human) (UniProt Q09013)
[4] = system: PIK3CA (human), P42336 [E545K]
MAP3K12 (human) = MAP3K12 (human) (UniProt Q12852)
ULK3 (human) = ULK3 (human) (UniProt Q6PHR2)
FGFR4 (human) = FGFR4 (human) (UniProt P22455)
IKBKB (human) = IKBKB (human) (UniProt O14920)
CAMK1D (human) = CAMK1D (human) (UniProt Q8IU85)
[5] = system: EGFR (human), P00533 [A750P; 747-749 del]
GSK3A (human) = GSK3A (human) (UniProt P49840)
CLK2 (human) = CLK2 (human) (UniProt P49760)
EPHA6 (human) = EPHA6 (human) (UniProt Q9UF33)
RPS6KA3 KD1 (human) = RPS6KA3 KD1 (human) (UniProt P51812)
MAPK14 (human) = MAPK14 (human) (UniProt Q16539)
STK10 (human) = STK10 (human) (UniProt O94804)
Sequence of STK10 (human) (O94804 whole entry, looked up): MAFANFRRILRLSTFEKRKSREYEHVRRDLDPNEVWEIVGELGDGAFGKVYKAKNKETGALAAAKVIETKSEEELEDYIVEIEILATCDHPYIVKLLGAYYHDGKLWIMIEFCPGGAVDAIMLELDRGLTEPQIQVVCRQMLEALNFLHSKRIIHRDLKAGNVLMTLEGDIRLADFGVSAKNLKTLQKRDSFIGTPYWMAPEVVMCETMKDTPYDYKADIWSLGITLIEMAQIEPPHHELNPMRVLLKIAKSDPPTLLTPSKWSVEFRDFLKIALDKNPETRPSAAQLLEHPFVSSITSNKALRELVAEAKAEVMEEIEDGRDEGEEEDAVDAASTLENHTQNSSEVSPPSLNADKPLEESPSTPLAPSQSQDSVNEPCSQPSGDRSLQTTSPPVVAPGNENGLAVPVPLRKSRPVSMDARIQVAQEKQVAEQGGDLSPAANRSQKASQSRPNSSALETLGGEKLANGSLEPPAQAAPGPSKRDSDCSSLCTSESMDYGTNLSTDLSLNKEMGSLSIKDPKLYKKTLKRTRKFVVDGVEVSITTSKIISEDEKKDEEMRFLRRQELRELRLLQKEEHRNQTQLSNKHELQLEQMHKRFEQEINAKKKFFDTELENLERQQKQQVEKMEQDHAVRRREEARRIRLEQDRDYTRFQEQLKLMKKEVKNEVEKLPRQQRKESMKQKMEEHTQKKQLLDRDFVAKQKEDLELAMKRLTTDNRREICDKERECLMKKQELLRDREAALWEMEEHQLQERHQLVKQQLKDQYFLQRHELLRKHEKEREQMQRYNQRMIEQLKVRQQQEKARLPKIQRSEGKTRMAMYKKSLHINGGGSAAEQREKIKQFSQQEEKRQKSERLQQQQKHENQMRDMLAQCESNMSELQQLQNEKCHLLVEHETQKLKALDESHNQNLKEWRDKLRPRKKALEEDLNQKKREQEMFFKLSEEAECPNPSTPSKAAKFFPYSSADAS

EPHA1 (human) = EPHA1 (human) (UniProt P21709)
LIMK2 (human) = LIMK2 (human) (UniProt P53671)
DAPK2 (human) = DAPK2 (human) (UniProt Q9UIK4)
HIPK1 (human) = HIPK1 (human) (UniProt Q86Z02)
Sequence of HIPK1 (human) (Q86Z02 whole entry, looked up): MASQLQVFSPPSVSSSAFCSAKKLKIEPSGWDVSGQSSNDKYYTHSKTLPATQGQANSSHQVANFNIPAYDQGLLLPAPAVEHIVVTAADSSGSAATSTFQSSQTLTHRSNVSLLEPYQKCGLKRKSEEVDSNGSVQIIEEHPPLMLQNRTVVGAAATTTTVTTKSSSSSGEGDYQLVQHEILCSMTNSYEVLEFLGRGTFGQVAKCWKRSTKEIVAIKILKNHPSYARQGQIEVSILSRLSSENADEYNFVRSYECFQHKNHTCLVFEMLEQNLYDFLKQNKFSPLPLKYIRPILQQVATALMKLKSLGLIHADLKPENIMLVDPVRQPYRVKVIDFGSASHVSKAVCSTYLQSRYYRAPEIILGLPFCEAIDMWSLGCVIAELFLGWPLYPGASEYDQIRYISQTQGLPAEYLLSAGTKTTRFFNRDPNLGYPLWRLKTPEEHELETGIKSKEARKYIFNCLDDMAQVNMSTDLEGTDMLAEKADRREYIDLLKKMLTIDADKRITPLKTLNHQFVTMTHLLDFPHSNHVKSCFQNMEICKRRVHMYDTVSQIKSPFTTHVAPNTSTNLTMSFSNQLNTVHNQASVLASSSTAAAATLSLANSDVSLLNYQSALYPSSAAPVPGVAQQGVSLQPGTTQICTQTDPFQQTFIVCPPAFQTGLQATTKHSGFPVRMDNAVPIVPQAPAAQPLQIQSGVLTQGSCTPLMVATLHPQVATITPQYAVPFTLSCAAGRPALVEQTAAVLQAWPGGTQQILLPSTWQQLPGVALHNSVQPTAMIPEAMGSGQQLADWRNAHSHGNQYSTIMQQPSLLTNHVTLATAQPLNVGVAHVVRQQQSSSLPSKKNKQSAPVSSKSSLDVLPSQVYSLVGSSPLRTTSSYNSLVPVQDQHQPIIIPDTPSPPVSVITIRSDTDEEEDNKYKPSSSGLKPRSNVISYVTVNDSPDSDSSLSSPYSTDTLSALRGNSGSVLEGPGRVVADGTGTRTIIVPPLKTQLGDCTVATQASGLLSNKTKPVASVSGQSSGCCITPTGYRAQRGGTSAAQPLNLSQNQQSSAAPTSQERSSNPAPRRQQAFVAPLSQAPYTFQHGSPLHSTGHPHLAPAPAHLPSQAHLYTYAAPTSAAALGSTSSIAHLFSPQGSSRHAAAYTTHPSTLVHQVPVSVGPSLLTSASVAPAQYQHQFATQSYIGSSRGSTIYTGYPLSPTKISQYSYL

CSNK1E (human) = CSNK1E (human) (UniProt P49674)
Sequence of CSNK1E (human) (P49674 whole entry, looked up): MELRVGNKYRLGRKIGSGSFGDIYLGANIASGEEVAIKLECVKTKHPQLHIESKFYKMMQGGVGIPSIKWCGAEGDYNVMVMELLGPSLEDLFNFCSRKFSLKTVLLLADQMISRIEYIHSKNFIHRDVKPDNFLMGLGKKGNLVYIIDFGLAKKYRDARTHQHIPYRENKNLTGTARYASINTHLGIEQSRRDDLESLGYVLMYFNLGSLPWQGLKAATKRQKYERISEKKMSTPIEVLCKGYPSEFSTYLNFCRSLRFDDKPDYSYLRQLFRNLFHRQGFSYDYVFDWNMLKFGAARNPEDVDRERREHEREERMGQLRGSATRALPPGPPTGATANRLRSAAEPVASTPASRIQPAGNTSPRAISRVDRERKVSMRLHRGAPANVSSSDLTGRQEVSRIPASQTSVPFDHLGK

MAPK15 (human) = MAPK15 (human) (UniProt Q8TD08)
STK33 (human) = STK33 (human) (UniProt Q9BYT3)

kinase still bound, per cent of control (NEK6 (human)): 99%
kinase still bound, per cent of control (CSK (human)): 100%
kinase still bound, per cent of control [1]: 48%
kinase still bound, per cent of control [2]: 50%
kinase still bound, per cent of control [3]: 80%
kinase still bound, per cent of control (NTRK3 (human)): 2.1%
kinase still bound, per cent of control (CAMKK2 (human)): 100%
kinase still bound, per cent of control (RPS6KA1 KD2 (human)): 43%
kinase still bound, per cent of control (RIOK3 (human)): 68%
kinase still bound, per cent of control (CDK7 (human)): 100%
kinase still bound, per cent of control (MKNK1 (human)): 100%
kinase still bound, per cent of control (MYLK4 (human)): 100%
kinase still bound, per cent of control (CSNK2A1 (human)): 76%
kinase still bound, per cent of control (CSNK1D (human)): 42%
kinase still bound, per cent of control (MYLK (human)): 100%
kinase still bound, per cent of control (PIM1 (human)): 46%
kinase still bound, per cent of control (ITK (human)): 100%
kinase still bound, per cent of control (AAK1 (human)): 75%
kinase still bound, per cent of control (DDR1 (human)): 81%
kinase still bound, per cent of control (SLK (human)): 100%
kinase still bound, per cent of control (FER (human)): 100%
kinase still bound, per cent of control (DMPK (human)): 91%
kinase still bound, per cent of control [4]: 100%
kinase still bound, per cent of control (MAP3K12 (human)): 100%
kinase still bound, per cent of control (ULK3 (human)): 95%
kinase still bound, per cent of control (FGFR4 (human)): 100%
kinase still bound, per cent of control (IKBKB (human)): 100%
kinase still bound, per cent of control (CAMK1D (human)): 100%
kinase still bound, per cent of control [5]: 33%
kinase still bound, per cent of control (GSK3A (human)): 100%
kinase still bound, per cent of control (CLK2 (human)): 95%
kinase still bound, per cent of control (EPHA6 (human)): 100%
kinase still bound, per cent of control (RPS6KA3 KD1 (human)): 72%
kinase still bound, per cent of control (MAPK14 (human)): 100%
kinase still bound, per cent of control (STK10 (human)): 100%
kinase still bound, per cent of control (EPHA1 (human)): 74%
kinase still bound, per cent of control (LIMK2 (human)): 100%
kinase still bound, per cent of control (DAPK2 (human)): 95%
kinase still bound, per cent of control (HIPK1 (human)): 45%
kinase still bound, per cent of control (CSNK1E (human)): 59%
kinase still bound, per cent of control (STK33 (human)): 51%
SMILES: COc1cc(N2CCN(C)CC2)ccc1Nc1ncc2c(n1)Nc1ccccc1NC2=O
kinase still bound, per cent of control (MAPK15 (human)): 69%

kinase still bound, per cent of control (NEK6 (human)): 35%
kinase still bound, per cent of control (CSK (human)): 88%
kinase still bound, per cent of control [1]: 72%
kinase still bound, per cent of control [2]: 100%
kinase still bound, per cent of control [3]: 89%
kinase still bound, per cent of control (NTRK3 (human)): 68%
kinase still bound, per cent of control (CAMKK2 (human)): 34%
kinase still bound, per cent of control (RPS6KA1 KD2 (human)): 24%
kinase still bound, per cent of control (RIOK3 (human)): 52%
kinase still bound, per cent of control (CDK7 (human)): 67%
kinase still bound, per cent of control (MKNK1 (human)): 77%
kinase still bound, per cent of control (MYLK4 (human)): 100%
kinase still bound, per cent of control (CSNK2A1 (human)): 82%
kinase still bound, per cent of control (CSNK1D (human)): 81%
kinase still bound, per cent of control (MYLK (human)): 17%
kinase still bound, per cent of control (PIM1 (human)): 66%
kinase still bound, per cent of control (ITK (human)): 81%
kinase still bound, per cent of control (AAK1 (human)): 75%
kinase still bound, per cent of control (DDR1 (human)): 100%
kinase still bound, per cent of control (SLK (human)): 87%
kinase still bound, per cent of control (FER (human)): 36%
kinase still bound, per cent of control (DMPK (human)): 100%
kinase still bound, per cent of control [4]: 74%
kinase still bound, per cent of control (MAP3K12 (human)): 86%
kinase still bound, per cent of control (ULK3 (human)): 100%
kinase still bound, per cent of control (FGFR4 (human)): 40%
kinase still bound, per cent of control (IKBKB (human)): 65%
kinase still bound, per cent of control (CAMK1D (human)): 71%
kinase still bound, per cent of control [5]: 70%
kinase still bound, per cent of control (GSK3A (human)): 100%
kinase still bound, per cent of control (CLK2 (human)): 78%
kinase still bound, per cent of control (EPHA6 (human)): 97%
kinase still bound, per cent of control (RPS6KA3 KD1 (human)): 99%
kinase still bound, per cent of control (MAPK14 (human)): 82%
kinase still bound, per cent of control (STK10 (human)): 100%
kinase still bound, per cent of control (EPHA1 (human)): 87%
kinase still bound, per cent of control (LIMK2 (human)): 83%
kinase still bound, per cent of control (DAPK2 (human)): 50%
kinase still bound, per cent of control (HIPK1 (human)): 67%
kinase still bound, per cent of control (CSNK1E (human)): 91%
kinase still bound, per cent of control (STK33 (human)): 1.2%
SMILES: COc1cc(N2CCN(C)CC2)ccc1Nc1ncc2c(n1)N(C)c1sccc1C(=O)N2C
kinase still bound, per cent of control (MAPK15 (human)): 87%

kinase still bound, per cent of control (NEK6 (human)): 100%
kinase still bound, per cent of control (CSK (human)): 100%
kinase still bound, per cent of control [1]: 100%
kinase still bound, per cent of control [2]: 100%
kinase still bound, per cent of control [3]: 100%
kinase still bound, per cent of control (NTRK3 (human)): 72%
kinase still bound, per cent of control (CAMKK2 (human)): 100%
kinase still bound, per cent of control (RPS6KA1 KD2 (human)): 100%
kinase still bound, per cent of control (RIOK3 (human)): 69%
kinase still bound, per cent of control (CDK7 (human)): 91%
kinase still bound, per cent of control (MKNK1 (human)): 100%
kinase still bound, per cent of control (MYLK4 (human)): 100%
kinase still bound, per cent of control (CSNK2A1 (human)): 100%
kinase still bound, per cent of control (CSNK1D (human)): 82%
kinase still bound, per cent of control (MYLK (human)): 82%
kinase still bound, per cent of control (PIM1 (human)): 100%
kinase still bound, per cent of control (ITK (human)): 100%
kinase still bound, per cent of control (AAK1 (human)): 100%
kinase still bound, per cent of control (DDR1 (human)): 100%
kinase still bound, per cent of control (SLK (human)): 100%
kinase still bound, per cent of control (FER (human)): 62%
kinase still bound, per cent of control (DMPK (human)): 86%
kinase still bound, per cent of control [4]: 91%
kinase still bound, per cent of control (MAP3K12 (human)): 90%
kinase still bound, per cent of control (ULK3 (human)): 100%
kinase still bound, per cent of control (FGFR4 (human)): 100%
kinase still bound, per cent of control (IKBKB (human)): 100%
kinase still bound, per cent of control (CAMK1D (human)): 100%
kinase still bound, per cent of control [5]: 100%
kinase still bound, per cent of control (GSK3A (human)): 100%
kinase still bound, per cent of control (CLK2 (human)): 100%
kinase still bound, per cent of control (EPHA6 (human)): 100%
kinase still bound, per cent of control (RPS6KA3 KD1 (human)): 100%
kinase still bound, per cent of control (MAPK14 (human)): 100%
kinase still bound, per cent of control (STK10 (human)): 100%
kinase still bound, per cent of control (EPHA1 (human)): 100%
kinase still bound, per cent of control (LIMK2 (human)): 100%
kinase still bound, per cent of control (DAPK2 (human)): 94%
kinase still bound, per cent of control (HIPK1 (human)): 100%
kinase still bound, per cent of control (CSNK1E (human)): 100%
kinase still bound, per cent of control (STK33 (human)): 100%
SMILES: CN1C(=O)c2ccccc2N(C)c2nc(NS(=O)(=O)c3ccc(N)cc3)ncc21
kinase still bound, per cent of control (MAPK15 (human)): 99%
